Reference: paper PMC8080595, “Discovery of a novel RORγ antagonist with skin-restricted exposure for topical treatment of mild to moderate psoriasis” (Scientific Reports, 2021)

Columns and labels:
[1] = Liver microsomal stability, human; type: in vitro ADME; settings: human, liver microsomes, pH 7.4; 1 µM compound, 0.5 mg/ml microsome, NADPH, 37 °C; read-out: Liver microsomal stability, t1/2, Human
Procedure: The compound was mixed with 0.5 mg/ml human liver microsome (Thermal Fisher) at a final concentration of 1 µM in 100 mM potassium phosphate buffer, pH 7.4. The reactions were initiated by the addition of 1 mM NADPH. Samples in duplicate were incubated at 37 °C with mixing. 100 µL aliquots were transferred after 0, 5, 10, 30, 45, 60 minutes to a new tube with 300 µL acetonitrile, incubated on ice for 30 minutes, centrifuged at 1800×g at 4 °C for 10 minutes. The supernatants were transferred to glass vials subjected to LC/MS analysis. Peak areas were measured to calculate half-life according to the formula t1/2 = − 0.693/slope of linear regression analysis of ln [concentration] versus incubation time. Similar methods were applied to access mouse and rat liver microsomal stability of the compounds.

Oral PK in SD rats = type: in vivo; settings: male, rat, plasma, 2 mg/kg oral
Procedure: Compounds were dissolved in 5% DMSO, 5% tween 80 and then added 90% saline. Male SD rats were dosed with the compound via oral (2 mg/kg or 5 mg/kg) routes, respectively after fasting overnight. Blood of the animals were collected at indicated time post dosing. Blood samples were then prepared for plasma and analyzed for the compounds using validated LC/MS assays. The experimental protocol used in this study was approved by IACUC. The experiments were conducted in accordance with the Guiding Principles for the Care and Use of Laboratory Animals and complied with the ARRIVE guidelines.

in vivo = settings: female, C57BL/6, mouse
Procedure: The dermal PK studies of Compound 1 in Vaseline were performed in dorsal skin of female C57BL/6 and male BALB/c mice via topical route. The skin (1.5 cm × 2 cm) was shaved one day prior to the dosing. At tissue collecting time point, the skin surface was decontaminated (twice with hand soap, twice with water, alternatively, and dried with tissue swabs). Stratum corneum is removed with tape strips for five times. The tissues were homogenized for PK analyses of Compound 1 by LC/MS.

GABAA = experiment: SAFETYscan47 Ion Channel; type: cell-based; settings: 3 µM
Procedure: (§1) To further profile any off-target activity, we counter-screened SHR168442 in SAFETYscan47 panel, compiled by DiscoverX based on the recommendation by major pharmaceutical companies. SHR168442 was screened at 3 µM in duplicates.

hERG = biological target: T1, hERG (Homo sapiens, UniProt Q12809); experiment: SAFETYscan47 Ion Channel; type: cell-based; settings: Blocker; 3 µM
T1 construct: purchased DiscoverX (Eurofins) SAFETYscan47
Procedure: as §1

[2] = tested on: targets in the SAFETYscan47 panel; experiment: SAFETYscan47 panel (DiscoverX), whole panel; settings: 3 µM, duplicates, all targets
Procedure: as §1

T1 sequence (Q12809 whole entry): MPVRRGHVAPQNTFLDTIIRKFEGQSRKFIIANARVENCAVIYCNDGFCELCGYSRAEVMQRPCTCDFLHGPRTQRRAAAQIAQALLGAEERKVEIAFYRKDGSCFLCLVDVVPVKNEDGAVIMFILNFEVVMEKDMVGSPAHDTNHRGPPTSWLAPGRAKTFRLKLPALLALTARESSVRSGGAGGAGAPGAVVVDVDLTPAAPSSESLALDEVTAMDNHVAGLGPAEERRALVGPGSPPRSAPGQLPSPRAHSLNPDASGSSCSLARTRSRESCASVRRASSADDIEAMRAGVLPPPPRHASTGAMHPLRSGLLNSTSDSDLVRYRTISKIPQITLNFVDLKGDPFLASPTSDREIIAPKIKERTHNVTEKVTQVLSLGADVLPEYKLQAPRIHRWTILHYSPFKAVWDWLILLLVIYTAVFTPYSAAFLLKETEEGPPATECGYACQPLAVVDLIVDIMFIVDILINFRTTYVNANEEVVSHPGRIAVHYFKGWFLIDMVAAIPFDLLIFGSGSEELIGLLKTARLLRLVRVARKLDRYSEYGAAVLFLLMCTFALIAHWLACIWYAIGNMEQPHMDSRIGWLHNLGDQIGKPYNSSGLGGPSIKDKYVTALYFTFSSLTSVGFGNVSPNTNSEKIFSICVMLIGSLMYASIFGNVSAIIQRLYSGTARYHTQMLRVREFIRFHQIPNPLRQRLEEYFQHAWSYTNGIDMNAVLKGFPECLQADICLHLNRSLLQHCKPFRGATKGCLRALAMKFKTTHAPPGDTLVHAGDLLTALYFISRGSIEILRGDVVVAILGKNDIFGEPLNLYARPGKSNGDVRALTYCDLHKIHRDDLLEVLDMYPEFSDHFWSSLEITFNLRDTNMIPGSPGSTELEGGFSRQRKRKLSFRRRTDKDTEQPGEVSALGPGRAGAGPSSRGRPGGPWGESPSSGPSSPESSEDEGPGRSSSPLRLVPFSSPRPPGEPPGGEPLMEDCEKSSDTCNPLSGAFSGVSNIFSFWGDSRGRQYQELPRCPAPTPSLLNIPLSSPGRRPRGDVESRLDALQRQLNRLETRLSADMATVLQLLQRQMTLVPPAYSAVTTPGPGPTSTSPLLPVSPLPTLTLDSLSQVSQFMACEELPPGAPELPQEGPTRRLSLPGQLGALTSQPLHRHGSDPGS

In the case of CCS(=O)(=O)c1ccc([C@H](CCO)c2nc3c(Cl)c(N4CCC(F)(F)CC4)c(Cl)cc3[nH]2)cc1 [SHR168442, (S)-3-(4,6-dichloro-5-(4,4-difluoropiperidin-1-yl)-1H-benzo[d]imidazol-2-yl)-3-(4-(ethylsulfonyl)phenyl)propan-1-ol], the half-life at 1 µM [1] is reported as 2.3 min, the AUC (Oral PK in SD rats; read-out: Exposure in SD Rat, AUC) is reported as 59 ng·h/mL and the Cmax (Oral PK in SD rats; read-out: Exposure in SD Rat, Cmax) is reported as 9.5 ng/mL. The half-life (Oral PK in SD rats; read-out: Exposure in SD Rat, t1/2 (converted)) was 6.2 h, the Exposure in plasma (in vivo; 3 h) was 7.0 ng/mL and the Exposure in skin (in vivo; 6 h) was 18,500 ng/g. The concentration at 3 h (in vivo; Exposure in plasma) was 8.8 ng/mL, the concentration at 6 h (in vivo; Exposure in skin) was 9710 ng/g and the “% Response Average” value (GABAA; Blocker) was 7.4%. The “% Response Replicate 1” value (GABAA; Blocker) was 4.6%, the “% Response Replicate 2” value (GABAA; Blocker) was 10.1% and the “% Response Average” value (GABAA; Opener) was 2.5%. For the same compound, the “% Response Replicate 1” value (GABAA; Opener) was 3.2%, the “% Response Replicate 2” value (GABAA; Opener) was 1.9% and the “% Response Average” value (hERG) was 4.9%. For the same compound, the “% Response Replicate 1” value (hERG) was 6.5%, the “% Response Replicate 2” value (hERG) was 3.2% and the “inhibition of the targets in the SAFETYscan47 panel” value [2] was “below 50%”.
